Source: patent publication US20180333382A1, “PHARMACEUTICAL COMPOSITIONS COMPRISING DGLA AND USE OF SAME” (DS Biopharma Limited, priority 2017, published 2018)
Where two headings read alike, the source gives them in different places.

What was measured:
[1] = Phase one study part 1: single dose plasma PK of free and total DGLA, fasted; assay type: in vivo, human; conditions: for half-life / Tmax: both sexes, human, plasma, oral; for half-life: read-out: t1/2, median, free DGLA, baseline-corrected plasma (converted)
Protocol: A single-center, double-blind, randomized, placebo-controlled, two part Phase one study was performed in healthy male and female subjects aged 18 to 45 years inclusive. The primary objective of this study was to assess the safety and plasma pharmacokinetics (PK) of orally administered single doses and orally administered multiple doses of DS107G capsules (once daily for 28 days) in healthy subjects.
Subjects were randomly assigned in a 3:1 ratio of DG107G to placebo by block randomization. Single dose part one of the study comprised three cohorts of eight subjects each, with the addition of Cohort four based on evaluation of the safety data of Cohort three by the Safety Monitoring Committee (SMC). A single oral dose of DS107G or matching placebo was administered to fasted subjects in Cohorts one to three (500, 1000, and 2000 mg, respectively) in parallel; subjects in Cohort four were administered a dose of 4000 mg following completion of Cohort three. Subjects in Cohort two received 1000 mg or matching placebo in the fed state at 14 days after the first dose.
Safety assessments were monitored throughout the study.
In Part one of the study, subjects in Cohorts one to three were administered a single dose of study drug (either 500-, 1000-, or 2000-mg as 500-mg DS107G capsules or matching placebo capsules) in parallel on study Day 1 after at least an 8-hour fast, according to Table 20. Cohort 4 was initiated following the review of safety data from Cohort 3 by the SMC.
Analysis of populations included the following: • The Intention-to-Treat (ITT) population consists of all randomized subjects who had been administered at least 1 dose of study drug. • The Per Protocol (PP) population consists of all subjects in the ITT population who had no major protocol violation, as defined in the SAP. • The PK population contains all subjects included in the PP population who had evaluable PK data derived from plasma. A plasma concentration observation was considered a valid, evaluable measurement if the following data were available: study identification number, randomization number, date and time of sampling, dose and concentration. A series of such measurements from the same sample were considered complete if each protocol prescribed concentration was evaluable. Plasma PK data were evaluable by definition if the data contained a complete series of observations. Any missing plasma PK observation would result in incomplete PK data, thus a subject with any missing plasma PK observation was excluded from the PK population. Subjects randomized to placebo were also excluded from the PK population.

[2] = Phase II study: safety (adverse events); assay type: in vivo, human; conditions: oral, 2 g once daily for 8 weeks
Excerpt: Subjects visited the clinic on 6 occasions: at screening, baseline, week 2, week 4, week 8 (end of treatment/early termination) and week 10 (follow-up). All subjects exited the study at the week 10 visit. The primary efficacy variable was the proportion of patients achieving an IGA of 0 (clear) or 1 (almost clear), and a decrease of at least 2 points in IGA at week 8. Secondary efficacy variables included: IGA at other visits, pruritus (obtained from the SCORAD visual analog scale), EASI, BSA, POEM, DLQI, SCORAD and TEWL (for selected sites only). Safety was assessed through adverse events, physical examination, vital signs and safety laboratory tests (including pregnancy tests for women of childbearing potential). Pharmacokinetic samples were obtained at Baseline (Day 0), week 4 and week 8 visits in order to measure total and free DGLA plasma trough levels. Separate plasma samples were retained for later analysis of total fatty acid profile and interleukin profile.
Laboratory tests were performed at screening, Day 0, Week 4 and Week 8. If Week 8 results indicated a clinically significant change from baseline, laboratory tests were also performed at Week 10. […]
Efficacy was evaluated on the basis of the ITT population and analyses were performed based on the randomized treatment and not on the treatment received. […]

CCCCC/C=C\C/C=C\C/C=C\CCCCCCC(=O)O [DS107G, Dihomo gamma linolenic acid]
AUC0-24, mean, free DGLA, baseline-corrected plasma ([1]; 500 mg single dose): 2728.1 ng·h/mL
AUC0-24/Dose, mean, free DGLA, baseline-corrected plasma ([1]; 500 mg single dose): 5.46 h/kL
AUC0-24/Dose, mean, total DGLA, baseline-corrected plasma ([1]; 500 mg single dose): 79.11 h/kL
AUC0-inf, mean, free DGLA, baseline-corrected plasma ([1]; 500 mg single dose): 21483.3 ng·h/mL
AUC0-inf/Dose, mean, free DGLA, baseline-corrected plasma ([1]; 500 mg single dose): 42.97 h/kL
AUC0-inf/Dose, mean, total DGLA, baseline-corrected plasma ([1]; 500 mg single dose): 8831.93 h/kL
CL/F, mean, free DGLA, baseline-corrected plasma ([1]; 500 mg single dose): 0.0306 kL/h
Cmax, mean, free DGLA, baseline-corrected plasma ([1]; 500 mg single dose): 934.6 ng/mL
Cmax/Dose, mean, free DGLA, baseline-corrected plasma ([1]; 500 mg single dose): 1.869 kL⁻¹
Cmax/Dose, mean, total DGLA, baseline-corrected plasma ([1]; 500 mg single dose): 14.400 kL⁻¹
λz, mean, free DGLA, baseline-corrected plasma ([1]; 500 mg single dose): 0.0035 h⁻¹
λz, mean, total DGLA, baseline-corrected plasma ([1]; 500 mg single dose): 0.0013 h⁻¹
AUC0-24, mean, free DGLA, baseline-corrected plasma ([1]; 1000 mg single dose): 3998.5 ng·h/mL
AUC0-24/Dose, mean, free DGLA, baseline-corrected plasma ([1]; 1000 mg single dose): 4.00 h/kL
AUC0-24/Dose, mean, total DGLA, baseline-corrected plasma ([1]; 1000 mg single dose): 215.37 h/kL
AUC0-inf, mean, free DGLA, baseline-corrected plasma ([1]; 1000 mg single dose): 218955.6 ng·h/mL
AUC0-inf/Dose, mean, free DGLA, baseline-corrected plasma ([1]; 1000 mg single dose): 218.96 h/kL
AUC0-inf/Dose, mean, total DGLA, baseline-corrected plasma ([1]; 1000 mg single dose): 4031.41 h/kL
CL/F, mean, free DGLA, baseline-corrected plasma ([1]; 1000 mg single dose): 0.1866 kL/h
Cmax, mean, free DGLA, baseline-corrected plasma ([1]; 1000 mg single dose): 1602.8 ng/mL
Cmax/Dose, mean, free DGLA, baseline-corrected plasma ([1]; 1000 mg single dose): 1.603 kL⁻¹
Cmax/Dose, mean, total DGLA, baseline-corrected plasma ([1]; 1000 mg single dose): 15.750 kL⁻¹
λz, mean, free DGLA, baseline-corrected plasma ([1]; 1000 mg single dose): 0.0487 h⁻¹
λz, mean, total DGLA, baseline-corrected plasma ([1]; 1000 mg single dose): 0.0136 h⁻¹
AUC0-24, mean, free DGLA, baseline-corrected plasma ([1]; 2000 mg single dose): 6429.0 ng·h/mL
AUC0-24/Dose, mean, free DGLA, baseline-corrected plasma ([1]; 2000 mg single dose): 3.21 h/kL
AUC0-24/Dose, mean, total DGLA, baseline-corrected plasma ([1]; 2000 mg single dose): 105.25 h/kL
AUC0-inf, mean, free DGLA, baseline-corrected plasma ([1]; 2000 mg single dose): 26877.0 ng·h/mL
AUC0-inf/Dose, mean, free DGLA, baseline-corrected plasma ([1]; 2000 mg single dose): 13.44 h/kL
AUC0-inf/Dose, mean, total DGLA, baseline-corrected plasma ([1]; 2000 mg single dose): 1138.25 h/kL
CL/F, mean, free DGLA, baseline-corrected plasma ([1]; 2000 mg single dose): 0.1339 kL/h
Cmax, mean, free DGLA, baseline-corrected plasma ([1]; 2000 mg single dose): 2074.0 ng/mL
Cmax/Dose, mean, free DGLA, baseline-corrected plasma ([1]; 2000 mg single dose): 1.037 kL⁻¹
Cmax/Dose, mean, total DGLA, baseline-corrected plasma ([1]; 2000 mg single dose): 8.867 kL⁻¹
λz, mean, free DGLA, baseline-corrected plasma ([1]; 2000 mg single dose): 0.0200 h⁻¹
λz, mean, total DGLA, baseline-corrected plasma ([1]; 2000 mg single dose): 0.0084 h⁻¹
AUC0-24, mean, free DGLA, baseline-corrected plasma ([1]; 4000 mg single dose): 9436.8 ng·h/mL
AUC0-24/Dose, mean, free DGLA, baseline-corrected plasma ([1]; 4000 mg single dose): 2.36 h/kL
AUC0-24/Dose, mean, total DGLA, baseline-corrected plasma ([1]; 4000 mg single dose): 109.44 h/kL
AUC0-inf, mean, free DGLA, baseline-corrected plasma ([1]; 4000 mg single dose): 17113.6 ng·h/mL
AUC0-inf/Dose, mean, free DGLA, baseline-corrected plasma ([1]; 4000 mg single dose): 4.28 h/kL
AUC0-inf/Dose, mean, total DGLA, baseline-corrected plasma ([1]; 4000 mg single dose): 1493.38 h/kL
CL/F, mean, free DGLA, baseline-corrected plasma ([1]; 4000 mg single dose): 0.2420 kL/h
Cmax, mean, free DGLA, baseline-corrected plasma ([1]; 4000 mg single dose): 3021.8 ng/mL
Cmax/Dose, mean, free DGLA, baseline-corrected plasma ([1]; 4000 mg single dose): 0.755 kL⁻¹
Cmax/Dose, mean, total DGLA, baseline-corrected plasma ([1]; 4000 mg single dose): 6.471 kL⁻¹
λz, mean, free DGLA, baseline-corrected plasma ([1]; 4000 mg single dose): 0.0603 h⁻¹
λz, mean, total DGLA, baseline-corrected plasma ([1]; 4000 mg single dose): 0.0102 h⁻¹
half-life ([1]; 500 mg single dose): 206 h
Tmax ([1]; 500 mg single dose, read-out: tmax, median, free DGLA, baseline-corrected plasma): 4 h
half-life ([1]; 1000 mg single dose): 28.3 h
Tmax ([1]; 1000 mg single dose, read-out: tmax, median, free DGLA, baseline-corrected plasma): 4 h
half-life ([1]; 2000 mg single dose): 57.3 h
Tmax ([1]; 2000 mg single dose, read-out: tmax, median, free DGLA, baseline-corrected plasma): 4 h
half-life ([1]; 4000 mg single dose): 67.5 h
Tmax ([1]; 4000 mg single dose, read-out: tmax, median, free DGLA, baseline-corrected plasma): 4 h
Tmax ([1]; single dose 500-4000 mg, read-out: median time to maximum concentration (Tmax), free DGLA): 4 h
dose dependence of mean baseline-corrected Cmax and AUC0-24, free and total DGLA ([1]; single dose 500-4000 mg): increased in a linear manner
drug related Serious Adverse Events [2]: no drug related Serious Adverse Events
tolerability [2]: very well tolerated
